From patent publication US7951232B2, “Surface coating compositions and methods” (Elevance Renewable Sciences, Inc., priority 2006, dated 2011)

Columns and labels:
[1] = tested on: Escherichia coli 0157:H7, ATCC 43895; test: Time-Kill Procedure (ASTM), rate of kill; type: cell-based
Description: (§1) The rate of kill for these organisms upon exposure to 9-decenoic acid was determined using the American Society for Testing and Materials (ASTM) procedure entitled “Standard Test Method for the Assessment of Microbiocidal Activity of Test Materials Using a Time-Kill Procedure”, October 1998. This procedure incorporates the recommendations described in the “Manual of Clinical Microbiology,”5th ed., edited by A. B. Balows et al., ASM, Washington, and is directed by the Federal Register, June 1994.
(§2) Stock cultures were transferred into TSB and incubated for 18-24 hours at 37±2° C. A second transfer was made onto TSA plates and were incubated for 18-24 hours at 37±2° C. The plates were removed from incubation and the bacterial growth washed from the agar surface using Butterfield's Phosphate Buffered Dilution Water (PBDW). The bacterial suspension was adjusted to contain approximately 10^8 Colony Forming Units (CFU)/ml with PBDW using spectrophometric methods extant in the laboratory.
(§3) The concentrated 9-decenoic acid was diluted 1:40 in filter sterilized isopropanol to yield a 2.5% stock solution. Subsequent dilutions to the 9-decenoic acid stock solutions were made with sterile Deionized Water (DI) to achieve concentrations of 0.1%, 0.05%, 0.01%, and 0.001%. The pH was determined for each dilution; pH values ranged from 4.4-4.1. Additionally, the 9-decenoic acid stock solution was adjusted to pH 7 with 1 N NaOH and serially diluted with sterile DI to achieve concentrations of 1.0%, 0.75% and 0.5%.
(§4) Compliant with the ASTM procedure cited, for each challenge microorganism a 9.9 ml aliquot of the prepared 9-decenoic acid suspension was added to a sterile tube. A 0.1 ml aliquot of the standardized inoculum was added to the 9-decenoic acid solution representing the start of the test exposure. The inoculated 9-decenoic acid solution was immediately mixed thoroughly. The inoculated suspension was held at room temperature for 0.5, 2, 5, 7 and 10 minute exposure times for tests run at ˜pH 4. The pH 7 tests were held at room temperature for 0.5 and 2 minutes.
(§5) At each exposure sample time, a 1.0 ml aliquot of the inoculated 9-decenoic acid suspension was transferred to 9.0 ml of D/E Neutralizing Broth. Additional ten-fold serial dilutions were made in PBDW and plated in duplicate on TSA. All plates were incubated for 48 hours at 37±2° C. and visually examined for growth. The plates are enumerated, recorded and log kill determined for each time point.
(§6) The following study controls were conducted: culture purity, neutralizer sterility, initial suspension population, test population, neutralization verification and a negative control using isopropanol. Culture purity was verified by performing a streak plate for isolated colonies on the each culture used. All cultures were determined to be pure based on consistent colony morphology typical for the test organism. The neutralizer sterility was confirmed by no growth in an incubated sample.
(§7) The population of the initial and test culture were determined by serial dilution, plating and enumerating after incubation. The initial suspension were determined to be ≧10^4 CFU/ml. The test culture population was used for calculation of the log reduction achieved at each time point.
(§8) Neutralization effectiveness was verified by a filtration test. For each organism, four tubes were prepared with 9 ml D/E Neutralizing Broth and fewer than 100 CFU/ml of the organism. A 1.0 ml aliquot of prepared 9-decenoic acid was added to each tube. Immediately, the entire contents of 2 tubes were filtered through a filtration apparatus and rinsed with sterile diluent. The remaining 2 tubes were held at room temperature for 30 minutes and then the entire contents were filtered using the same procedure. The filters were aseptically transferred to TSA plates and incubated for 48 hours at 37±2° C. and visually examined for growth.
(§9) This control was inoculated, subcultured and incubated as in the test procedure.

[2] = tested on: Candida albicans, ATCC 10231; test: Time-Kill Procedure (ASTM), rate of kill; type: cell-based
Description: as §1, §2, §3, §4, §5, §6, §7, §8, §9

[3] = 0.01%, pH 4.4, exposure 0.5 minutes
[4] = 0.01%, pH 4.4, exposure 2 minutes
[5] = 0.01%, pH 4.4, exposure 5 minutes
[6] = 0.01%, pH 4.4, exposure 7 minutes
[7] = 0.01%, pH 4.4, exposure 10 minutes
[8] = 0.05%, pH 4.1, exposure 0.5 minutes
[9] = 0.05%, pH 4.1, exposure 2 minutes
[10] = 0.05%, pH 4.1, exposure 5 minutes
[11] = 0.05%, pH 4.1, exposure 7 minutes
[12] = 0.05%, pH 4.1, exposure 10 minutes
[13] = 0.1%, pH 4.1, exposure 0.5 minutes
[14] = 0.1%, pH 4.1, exposure 2 minutes
[15] = 0.1%, pH 4.1, exposure 5 minutes
[16] = 0.1%, pH 4.1, exposure 7 minutes
[17] = 0.1%, pH 4.1, exposure 10 minutes

With `C=CCCCCCCCC(=O)O` [9-decenoic acid] the “Log reduction of organisms after exposure” value (shortened to “Log reduction of organisms”) [1, 3] was 1.3 log, the “Log reduction of organisms” value [1, 4] was 1.6 log and the “Log reduction of organisms” value [1, 5] was 2.2 log. For the same compound, the “Log reduction of organisms” value [1, 6] was 1.8 log, the “Log reduction of organisms” value [1, 7] was 2.7 log and the “Log reduction of organisms” value [1, 8] was >6.2 log. For the same compound, the “Log reduction of organisms” value [1, 9] was >6.2 log, the “Log reduction of organisms” value [1, 10] was >6.2 log and the “Log reduction of organisms” value [1, 11] was >6.2 log. The “Log reduction of organisms” value [1, 12] was >6.2 log, the “Log reduction of organisms” value [1, 13] was >6.2 log and the “Log reduction of organisms” value [1, 14] was >6.2 log. The “Log reduction of organisms” value [1, 15] was >6.2 log, the “Log reduction of organisms” value [1, 16] was >6.2 log and the “Log reduction of organisms” value [1, 17] was >6.2 log. The “Log reduction of organisms” value [2, 3] was 1.0 log, the “Log reduction of organisms” value [2, 4] was 2.9 log and the “Log reduction of organisms” value [2, 5] was >6.7 log. For the same compound, the “Log reduction of organisms” value [2, 6] was >6.7 log, the “Log reduction of organisms” value [2, 7] was >6.7 log and the “Log reduction of organisms” value [2, 8] was >6.7 log. The “Log reduction of organisms” value [2, 9] was >6.7 log, the “Log reduction of organisms” value [2, 10] was >6.7 log and the “Log reduction of organisms” value [2, 11] was >6.7 log. The “Log reduction of organisms” value [2, 12] was >6.7 log, the “Log reduction of organisms” value [2, 13] was >6.7 log and the “Log reduction of organisms” value [2, 14] was >6.7 log. The “Log reduction of organisms” value [2, 15] was >6.7 log, the “Log reduction of organisms” value [2, 16] was >6.7 log and the “Log reduction of organisms” value [2, 17] was >6.7 log.
